# According to US10669284B2, “Fused thiazolopyrimidine derivatives as MNKS inhibitors” (LIFEARC, priority 2015, dated 2020):
# Columns and labels:
# [1] = system: phosphorylation of eIF4E at ser209 in MV4.11 cell line; assay: MNK cellular activity phospho-eIF4E detection assay (Alphascreen Surefire); format: cell-based; conditions: Homo sapiens; MV4.11 cell line, phospho-eIF4E (ser209) Alphascreen Surefire; read-out: P(IC50) elF4E (converted)
# Method: The assay detection is based on the formation of sandwich antibody complexes coupled to donor and acceptor beads. Excitation at 680 nm causes the transfer of a singlet oxygen species between donor and acceptor beads when they are in close proximity by binding to the analyte ([…]), which results in the emission of light at 520-620 nm.
# Cells were then lysed and the Alphascreen Surefire protocol followed according to manufacturer's recommendations. 8 ul Acceptor beads (1:50 dilution in kit activation buffer) was added to lysate, shaken 150 rpm for 2 min and incubated for 1.5 hr at room temperature. 3 ul Donor beads (1:20 dilution in kit dilution buffer) were then added, shaken 150 rpm for 2 min and incubated for a further 1.5 hr at room temperature after which the plates were read on Pherastar FS using Alphascreen optic module.
# Data were normalised relative to untreated DMSO only controls and curves repeated in duplicate within experiments. Data reported are averages of at least 2 independent experiments.
# Full-length human MNK2 = biological target: T1, Full-length human MNK2 (Homo sapiens, UniProt Q9HBH9, T379D); assay: MNK2 biochemical IC50 assay (Caliper Mobility Shift Assay); conditions: read-out: P(IC50) MNK2 (converted)
# T1 construct: GST (N); purchased Carna Biosciences 02-146; host or cells: baculovirus expression system
# Excerpt: (§1) The phosphorylated peptide product and unphosphorylated peptide substrate were detected using a Caliper Mobility Shift Assay using the Caliper LabChip EZ Reader II.
# (§2) The Caliper Mobility Shift Assay technology is based on the utilisation of a microfluidic chip to measure the conversion of a fluorescent non-phosphorylated peptide substrate to phosphorylated product by electrophoresis separation of substrate and product and detection via Laser-induced fluorescence. The LabChip EZ Reader software calculates the relative heights of substrate and product peaks and reports the peak ratio (Product peak(P) divided by the sum of Product peak(P) and Substrate peak(S)). The percent-conversion is calculated as 100×[(P/(P+S)]. All assays were set up to run in the linear phase with a maximum of 10 percent substrate conversion.
# (§3) These were N-terminal GST fusion proteins expressed in baculovirus expression system and purified by glutathione sepharose affinity chromatography. […] All other assay reagents were sourced from Sigma.
# (§4) The assay incubation times were adjusted depending on the concentration of ATP used. Assays were performed at low (50 uM) and high (1 mM) ATP. The low ATP values were selected to run at Km conditions for the standard assay to allow relative potencies to be compared across other kinases. The high ATP concentration was selected as representative of cellular ATP concentrations, and for an indication of ATP competition, where a significant shift (greater than half log) in apparent potency would be expected compared to Km conditions. All IC50 values reported are the average of at least two independent experiments.
# Reactions were performed as above using 10 nM MNK2 in the assay. Standard assays contained 50 uM ATP and high concentration ATP assays contained 1 mM ATP. […] All other conditions were the same.
# Full-length human MNK1 = biological target: T2, Full-length human MNK1 (Homo sapiens, UniProt Q9BUB5, T385D); assay: MNK1 biochemical IC50 assay (Caliper Mobility Shift Assay); conditions: read-out: P(IC50) MNK1 (converted)
# T2 construct: GST (N); purchased Carna Biosciences 02-145; host or cells: baculovirus expression system
# Excerpt: as §1, §2, §3
# Compounds were serially diluted in DMSO to generate a 10-point half log dilution curve with a final top concentration of 100 uM in the assay. […] Compounds were pre-incubated with enzyme and peptide in reaction buffer for 30 mins prior to addition of ATP to initiate the reaction. Final assay concentrations were 3 nM MNK1, 2 uM peptide substrate, 50 uM ATP, 50 mM Hepes pH 7.0, 0.01% BSA, 10 mM MgCl2, 1 mM dithiothrietol.
# as §4
# T2 sequence (Q9BUB5 1-424 isoform Q9BUB5-2 T344D): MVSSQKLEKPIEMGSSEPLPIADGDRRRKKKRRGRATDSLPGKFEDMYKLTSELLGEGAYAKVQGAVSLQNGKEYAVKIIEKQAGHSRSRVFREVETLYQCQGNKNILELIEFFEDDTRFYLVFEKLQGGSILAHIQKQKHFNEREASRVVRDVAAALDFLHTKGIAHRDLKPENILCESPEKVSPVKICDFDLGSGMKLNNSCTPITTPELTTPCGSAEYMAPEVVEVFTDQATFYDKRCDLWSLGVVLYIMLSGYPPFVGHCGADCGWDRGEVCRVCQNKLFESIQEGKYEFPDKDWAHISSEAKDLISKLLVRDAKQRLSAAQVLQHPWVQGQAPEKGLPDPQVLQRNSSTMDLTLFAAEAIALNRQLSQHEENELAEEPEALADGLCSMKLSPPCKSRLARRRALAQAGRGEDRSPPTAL
# T1 sequence (Q9HBH9 whole entry T379D): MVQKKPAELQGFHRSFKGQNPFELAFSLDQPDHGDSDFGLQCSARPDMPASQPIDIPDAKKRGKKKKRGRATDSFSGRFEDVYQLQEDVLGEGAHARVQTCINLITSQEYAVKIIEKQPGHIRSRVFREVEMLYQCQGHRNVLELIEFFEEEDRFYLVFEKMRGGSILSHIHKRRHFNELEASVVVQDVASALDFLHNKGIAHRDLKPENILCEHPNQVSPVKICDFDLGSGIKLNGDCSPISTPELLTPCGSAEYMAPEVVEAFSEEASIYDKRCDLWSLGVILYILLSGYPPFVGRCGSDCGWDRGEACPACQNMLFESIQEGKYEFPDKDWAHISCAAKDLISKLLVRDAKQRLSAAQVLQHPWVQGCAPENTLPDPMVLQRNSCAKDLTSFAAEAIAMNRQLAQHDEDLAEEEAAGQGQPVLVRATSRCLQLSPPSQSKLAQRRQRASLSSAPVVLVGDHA
Compound,IC50 [1] [nM],IC50 (Full-length human MNK2) [nM],IC50 (Full-length human MNK1) [nM]
"CO[C@@H]1CCC[C@H](Oc2cc(F)ccc2Nc2ncnc3sc(C(=O)NCC4CCNCC4)nc23)C1 [Example 61, 7-[4-fluoro-2-[(1S,3R)-3-methoxycyclohexoxy]anilino]-N-(4-piperidylmethyl)thiazolo[5,4-d]pyrimidine-2-carboxamide]",79.4,126,100
"CNCCNC(=O)c1nc2c(N3CCc4cc(F)ccc43)ncnc2s1 [Example 71, 7-(5-fluoroindolin-1-yl)-N-[2-(methylamino)ethyl]thiazolo[5,4-d]pyrimidine-2-carboxamide]",15.8,6.31,10
"CC(C)Oc1cc(F)ccc1Nc1ncnc2sc(C(=O)NCC3CCOCC3)nc12 [Example 38, 7-{[4-fluoro-2-(propan-2-yloxy)phenyl]amino}-N-(tetrahydro-2H-pyran-4-ylmethyl)[1,3]thiazolo[5,4-d]pyrimidine-2-carboxamide]",79.4,63.1,100
"CC(C)Oc1cc(F)ccc1Nc1ncnc2sc(C(=O)NCC(O)CO)nc12 (stereo not drawn) [Example 12, N-(2,3-dihydroxypropyl)-7-(4-fluoro-2-isopropoxy-anilino)thiazolo[5,4-d]pyrimidine-2-carboxamide]",50.1,63.1,126
"CNC(=O)c1nc2c(N3CCc4cc(F)ccc43)ncnc2s1 [Example 69, 7-(5-fluoroindolin-1-yl)-N-methyl-thiazolo[5,4-d]pyrimidine-2-carboxamide]",6.31,5.01,6.31
"CC(C)Oc1cc(F)ccc1Nc1ncnc2sc(C(=O)N3CCC(CCO)CC3)nc12 [Example 11, [7-(4-fluoro-2-isopropoxy-anilino)thiazolo[5,4-d]pyrimidin-2-yl]-[4-(2 hydroxyethyl)-1-piperidyl]methanone]",316,316,398
"Nc1nc2c(N3CCc4cc(F)ccc43)ncnc2s1 [Example 83, 7-(5-Fluoroindolin-1-yl)thiazolo[5,4-d]pyrimidin-2-amine]",126,39.8,31.6
"CC(C)Oc1cc(F)ccc1Nc1ncnc2sc(C(=O)N3CCC(CN(C)C)CC3)nc12 [Example 35, {4-[(dimethylamino)methyl]piperidin-1-yl}(7-{[4-fluoro-2-(propan-2-yloxy)phenyl]amino}[1,3]thiazolo[5,4-d]pyrimidin-2-yl)methanone]",316,200,158
"CC(C)Oc1cc(F)ccc1Nc1ncnc2sc(C(=O)NCCC3CCN(C)CC3)nc12 [Example 37, 7-{[4-fluoro-2-(propan-2-yloxy)phenyl]amino}-N-[2-(1-methylpiperidin-4-yl)ethyl][1,3]thiazolo[5,4-d]pyrimidine-2-carboxamide]",25.1,39.8,39.8
"CN(C)CCCNC(=O)c1nc2c(Nc3ccc(F)cc3O[C@@H]3CCCC[C@H]3O)ncnc2s1 [Example 15, N-[3-(dimethylamino)propyl]-7-[4-fluoro-2-[(1R,2R)-2-hydroxycyclohexoxy]anilino]thiazolo[5,4-d]pyrimidine-2-carboxamide]",251,631,794
"CC(=O)Nc1ccc2c(c1)CCN2c1ncnc2sc(C(=O)NC3CCN(C)CC3)nc12 [Example 46, 7-[5-(Acetylamino)-2,3-dihydro-1H-indol-1-yl]-N-(1-methylpiperidin-4-yl)[1,3]thiazolo[5,4-d]pyrimidine-2-carboxamide]",100,200,501
"O=C(NC1CCOCC1)c1nc2c(N3CCc4cnccc43)ncnc2s1 [Example 43, 7-(2,3-Dihydro-1H-pyrrolo[3,2-c]pyridin-1-yl)-N-(tetrahydro-2H-pyran-4-yl)[1,3]thiazolo[5,4-d]pyrimidine-2-carboxamide]",25.1,31.6,39.8
"CN1CCC2(CC1)CN(c1ncnc3sc(C(=O)NC4CCOCC4)nc13)c1ccccc12 [Example 40, 7-(1′-Methylspiro[indole-3,4′-piperidin]-1(2H)-yl)-N-(tetrahydro-2H-pyran-4-yl)[1,3]thiazolo[5,4-d]pyrimidine-2-carboxamide]",50.1,20,12.6

# Next, values leading:
IC50 [1] [nM],IC50 (Full-length human MNK2) [nM],IC50 (Full-length human MNK1) [nM],Compound
20,15.8,12.6,"NCC1CN(c2ncnc3sc(C(=O)NC4CCOCC4)nc23)c2ccccc21 (stereo not drawn) [Example 119, 7-[3-(Aminomethyl)indolin-1-yl]-N-tetrahydropyran-4-yl-thiazolo[5,4-d]pyrimidine-2-carboxamide]"
63.1,50.1,31.6,"O=C(NC1CCOCC1)c1nc2c(N3CC(CCN4CCCC4)c4cc(F)ccc43)ncnc2s1 (stereo not drawn) [Example 149, 7-[5-fluoro-3-(2-pyrrolidin-1-ylethyl)indolin-1-yl]-N-tetrahydropyran-4-yl-thiazolo[5,4-d]pyrimidine-2-carboxamide]"
5.01,6.31,7.94,CC(C)(O)CC1CN(c2ncnc3sc(C(=O)NCC4CCNCC4)nc23)c2ccc(F)cc21 (stereo not drawn) [Example 143]
79.4,79.4,39.8,"CN(C)Cc1cn(-c2ncnc3sc(C(=O)NC4CCOCC4)nc23)c2ccccc12 [Example 121, 7-[3-[(dimethylamino)methyl]indol-1-yl]-N-tetrahydropyran-4-yl-thiazolo[5,4-d]pyrimidine-2-carboxamide]"
39.8,31.6,100,"CNCCCNC(=O)c1nc2c(N3c4ccccc4C[C@@H]3C)ncnc2s1 [Example 131, N-[3-(methylamino)propyl]-7-[(2S)-2-methylindolin-1-yl]thiazolo[5,4-d]pyrimidine-2-carboxamide]"
10,20,31.6,CNC(=O)c1nc2c(N3CC(CCO)c4ccccc43)ncnc2s1 (stereo not drawn) [Example 157]
50.1,31.6,39.8,"CC1Cc2ccccc2N1c1ncnc2sc(C(=O)NC3CCOCC3)nc12 (stereo not drawn) [Example 122, 7-(2-Methylindolin-1-yl)-N-tetrahydropyran-4-yl-thiazolo[5,4-d]pyrimidine-2-carboxamide]"
100,20,10,"CN(C)CCCNc1nc2c(N3CCc4cc(F)ccc43)ncnc2s1 [Example 85, N1-(7-(5-fluoroindolin-1-yl)thiazolo[5,4-d]pyrimidin-2-yl)-N3,N3-dimethylpropane-1,3-diamine]"
100,50.1,63.1,"O=C(NC1CCOCC1)c1nc2c(N3CCc4cc(Cl)cc(F)c43)ncnc2s1 [Example 91, 7-(5-Chloro-7-fluoro-indolin-1-yl)-N-tetrahydropyran-4-yl-thiazolo[5,4-d]pyrimidine-2-carboxamide]"
20,15.8,12.6,CC1(CCO)CN(c2ncnc3sc(C(=O)NCC4CCNCC4)nc23)c2ccccc21 (stereo not drawn) [Example 144]
79.4,15.8,15.8,"C[C@@H]1Cc2ccccc2N1c1ncnc2sc(C(=O)NC3CCNCC3)nc12 [Example 129, 7-[(2R)-2-methylindolin-1-yl]-N-(4-piperidyl) thiazolo[5,4-d]pyrimidine-2-carboxamide]"
3.98,5.01,5.01,"COCCCNC(=O)c1nc2c(N3CC(CCN)c4ccccc43)ncnc2s1 (stereo not drawn) [Example 166, 7-[3-(2-amino-ethyl)indolin-1-yl]-N-(3-methoxypropyl) thiazolo[5,4-d]pyrimidine-2-carboxamide]"
501,126,316,CNC(=O)c1nc2c(N3CCc4cc(C(F)(F)F)ccc43)ncnc2s1 [Example 158]
